# Results taken from BindingDB's records for patent US11926614 (Oslo Universitetssykehus, 2024).
# Molecular target: T1, Poly [ADP-ribose] polymerase tankyrase-2 (Homo sapiens, UniProt Q9H2K2)
# T1 sequence (Q9H2K2 whole entry): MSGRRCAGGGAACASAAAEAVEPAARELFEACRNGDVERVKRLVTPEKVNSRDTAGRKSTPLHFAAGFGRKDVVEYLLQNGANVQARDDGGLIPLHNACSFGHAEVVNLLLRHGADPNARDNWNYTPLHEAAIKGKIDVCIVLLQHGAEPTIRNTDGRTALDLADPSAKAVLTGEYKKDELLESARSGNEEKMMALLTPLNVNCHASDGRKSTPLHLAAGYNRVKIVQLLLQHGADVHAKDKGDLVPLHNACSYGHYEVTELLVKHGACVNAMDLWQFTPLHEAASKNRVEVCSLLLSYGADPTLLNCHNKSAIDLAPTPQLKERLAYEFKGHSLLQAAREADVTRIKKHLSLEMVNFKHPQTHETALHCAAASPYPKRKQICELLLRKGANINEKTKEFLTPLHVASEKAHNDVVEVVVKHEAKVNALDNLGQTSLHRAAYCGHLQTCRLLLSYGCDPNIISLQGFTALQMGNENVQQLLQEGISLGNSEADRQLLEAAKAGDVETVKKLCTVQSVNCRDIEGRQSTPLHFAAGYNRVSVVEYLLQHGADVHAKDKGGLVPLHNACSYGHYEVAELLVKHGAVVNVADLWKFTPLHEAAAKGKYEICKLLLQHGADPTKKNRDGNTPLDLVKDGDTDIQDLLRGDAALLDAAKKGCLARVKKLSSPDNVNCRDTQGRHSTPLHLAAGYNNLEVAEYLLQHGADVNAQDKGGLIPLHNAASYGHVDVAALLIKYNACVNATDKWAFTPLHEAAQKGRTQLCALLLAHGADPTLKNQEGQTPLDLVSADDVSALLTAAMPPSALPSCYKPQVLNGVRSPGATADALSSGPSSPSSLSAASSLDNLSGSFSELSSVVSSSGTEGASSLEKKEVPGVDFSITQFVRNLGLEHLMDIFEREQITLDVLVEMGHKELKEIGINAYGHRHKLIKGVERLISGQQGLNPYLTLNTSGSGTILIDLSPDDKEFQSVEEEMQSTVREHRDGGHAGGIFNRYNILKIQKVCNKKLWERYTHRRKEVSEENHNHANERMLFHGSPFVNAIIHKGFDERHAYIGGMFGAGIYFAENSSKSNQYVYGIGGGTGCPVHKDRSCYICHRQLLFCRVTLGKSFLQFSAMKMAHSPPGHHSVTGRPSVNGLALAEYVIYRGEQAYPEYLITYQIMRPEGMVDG
# Assay: Biochemical Assay
# Excerpt: IC50 calculations:XLfit (idbs) was used to determine the IC50-values in inhibition experiments. The following formula was chosen to fit the data points (Langmuir Binding Isotherm):fit=((A+(B*x))+[…]*(1−exp((−1*D)*x)))/D)), res=(y−fit)
structure (smiles),measurement,value
"O=C(N[C@H]1C[C@H](c2nnc(-c3nccs3)n2-c2ccccc2F)C1)c1ccnc2cc(F)cnc12 [US11926614, Example 29]",IC50,2 nM
